Data on eight compounds can be found in ChEMBL document CHEMBL1157866, “Evaluation of anti-pigmentary effect of synthetic sulfonylamino chalcone” (Eur J Med Chem, 2010).

For series [1], the system named is B16. The experiment in a line: Inhibition of alpha-MSH-induced melanin production in mouse B16 cells assessed as reduction pigmentation at 20 uM after 48 hrs. In kind it is functional, cell-based.
Series [2] concerns B16. The experiment in a line: cells. The following applies: Mus musculus, B16, 48 h.
Series [3] addresses T1, Tyrosinase (Agaricus bisporus, UniProt O42713).
T1 sequence (O42713 whole entry): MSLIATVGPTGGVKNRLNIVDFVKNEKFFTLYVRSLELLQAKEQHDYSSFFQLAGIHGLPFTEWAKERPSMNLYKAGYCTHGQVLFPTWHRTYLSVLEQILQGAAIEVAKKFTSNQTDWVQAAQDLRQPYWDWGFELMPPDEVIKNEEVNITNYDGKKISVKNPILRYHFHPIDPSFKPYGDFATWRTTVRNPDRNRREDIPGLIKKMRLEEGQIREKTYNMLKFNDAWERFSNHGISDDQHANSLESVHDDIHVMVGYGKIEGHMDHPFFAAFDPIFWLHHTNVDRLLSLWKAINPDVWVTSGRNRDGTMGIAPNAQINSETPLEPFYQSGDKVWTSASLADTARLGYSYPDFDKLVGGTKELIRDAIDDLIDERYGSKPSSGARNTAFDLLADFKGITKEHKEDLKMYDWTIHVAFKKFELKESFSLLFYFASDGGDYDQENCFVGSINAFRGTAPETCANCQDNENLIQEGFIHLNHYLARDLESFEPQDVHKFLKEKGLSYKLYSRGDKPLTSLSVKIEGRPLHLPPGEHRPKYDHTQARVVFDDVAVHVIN
The experiment in a line: (§1) Inhibition of monophenolase activity of mushroom tyrosinase using as L-tyrosine substrate by spectrophotometric analysis.

Series [4] concerns the target T1, Tyrosinase. The series can be described thus: Competitive inhibition of monophenolase activity of mushroom tyrosinase using as L-tyrosine substrate by Lineweaver-Burke plot analysis.
In series [5] the test system is B16. The series can be described thus: Inhibition of alpha-MSH-induced melanin production in mouse B16 cells after 48 hrs.
Series [6] relates to B16. The experiment in a line: Inhibition of melanin production in mouse B16 cells after 48 hrs. Format: functional, cell-based.
Series [7] deals with B16. The experiment in a line: Reduction of alpha-MSH-induced tyrosinase expression in mouse B16 cells after 2 days by Western blot analysis. Format: functional, cell-based.
Series [8] concerns B16. The series can be described thus: Reduction of alpha-MSH-induced microphthalmia-associated transcription factor expression in mouse B16 cells after 2 days by Western blot analysis. In kind it is functional, cell-based.
Series [9] in a line: Cytotoxicity against mouse B16 cells at 20 uM after 72 hrs by MTT assay. In kind it is cell-based. To be noted: read-out: Survival.
The subject of series [10] is B16. The experiment in a line: Cytotoxicity against mouse B16 cells up to 30 uM after 48 hrs by MTT assay. Format: cell-based. The following applies: b16, 48 h. On the technique in general: Tetrazolium assays rely on reduction of a dye to a coloured formazan, in cell work by metabolically active cells.
A short description of series [11]: Cytotoxicity against mouse B16 cells at 10 uM after 72 hrs by MTT assay. Format: cell-based. The following applies: read-out: Survival.
In series [12] the test system is B16. The series can be described thus: Reduction of alpha-MSH-induced tyrosinase related protein 1 expression in mouse B16 cells after 2 days by Western blot analysis. In kind it is functional, cell-based. On the technique in general: A western blot detects proteins with antibodies after separation by electrophoresis.
Series [13] relates to Cavia porcellus. The series can be described thus: Toxicity in UV-induced hyperpigmentation brown guinea pig model at 0.3% applied topically bid for 4 weeks. In kind it is organism-based. The following applies: in vivo, topical_or_ocular, 672 h.
Series [14] concerns Cavia porcellus. The experiment in a line: Reduction of pigmentation in UV-induced hyperpigmentation brown guinea pig model at 0.3% applied topically bid for 4 weeks. In kind it is functional, organism-based.
Series [15] in a line: Cytotoxicity against mouse B16 cells at 30 uM after 72 hrs by MTT assay. In kind it is cell-based. The following applies: read-out: Survival.
Series [16] concerns B16. The experiment in a line: Reduction of alpha-MSH-induced tyrosinase related protein 2 expression in mouse B16 cells after 2 days by Western blot analysis. Format: functional, cell-based.
In series [17] the target is T2, Tyrosinase (Agaricus bisporus) (UniProt O42713).
T2 sequence (whole entry): T1 sequence (O42713 whole entry)
The series is described as §1.

Molecules are shown by their SMILES. Calls of active or inactive are those of the source. The calls are words filed in the database; no cut-off is given here.

Usually IC50 stands for the point on the concentration scale where inhibition reaches its midpoint. As a reminder, the Ki is the equilibrium dissociation constant of an inhibitor or competing ligand from its target. A higher Ki goes with lower affinity. In the case of `O=C(/C=C/c1ccc(O)cc1)c1ccc(O)cc1` [4,4'-DIHYDROXYCHALCONE], the result in series [1] was Active. In addition, the IC50 in [2] is 48.7 µM; in series [3] it was 4.8 µM. This compound yielded an inhibition constant (Ki) in series [4] of 2.9 µM.
Consider `Cc1ccc(S(=O)(=O)Nc2ccc(C(=O)/C=C/c3ccc(O)cc3)cc2)cc1`, for which the Activity result is “Dose-dependent effect” in [5], “Non-toxic” in series [10], “Non-toxic” in [13] and “Dose-dependent effect” in [17]. For the same compound, the result in series [6], in [7], in [8], in series [1], in [12] and in series [14] was Active. Besides, the result in series [16] was Active. Also, in [9], the viability at 72 h, 20 µM is 84%. The IC50 in [2] came to 10.4 µM; in [3], 23.3 µM. The viability at 72 h, 10 µM in [11] was determined as 92%. For the same compound, the viability at 72 h, 30 µM in series [15] stood at 78%. The inhibitory constant (Ki) in series [4] was 12.6 µM.
Turning to `O=C(/C=C/c1ccc(O)cc1)c1ccc(NS(=O)(=O)c2ccccc2)cc1`, the half-inhibitory concentration (IC50) turned out to be 24.2 µM in series [2] and 22.5 µM in series [3]. In series [17], the Activity result is “Dose-dependent effect”. Besides, the Ki in series [4] was determined as 13.3 µM.
`O=C(/C=C/c1ccc(O)cc1)c1ccc(NS(=O)(=O)c2ccc([N+](=O)[O-])cc2)cc1` gave an IC50 in series [3] of 15.2 µM. Besides, the Activity result in [17] was “Dose-dependent effect”. Moreover, in series [4], affinity was put at a Ki of 11.4 µM.
As for `Nc1ccc(C(=O)/C=C/c2ccc(O)cc2)cc1`, the outcome in series [1] was Active. Further, the figures for the 50% inhibitory concentration (IC50) in [2] and in [3] were 28.1 µM and 8.3 µM, respectively. The compound also registered an inhibition constant Ki in series [4] of 3.9 µM.
Regarding `O=C(/C=C/c1ccc(O)cc1)c1ccc(NS(=O)(=O)c2ccc(O)cc2)cc1`, the half-maximal inhibitory concentration (IC50) in [2] stood at 32.1 µM; in series [3], 58.8 µM. In addition, the Activity entry in series [17] was “Dose-dependent effect”. The affinity in series [4] corresponds to a Ki of 25.2 µM.
The corresponding values for `Nc1ccc(S(=O)(=O)Nc2ccc(C(=O)/C=C/c3ccc(O)cc3)cc2)cc1` are 21.2 µM, 30.7 µM, “Dose-dependent effect” and 16.7 µM.
Take `O=C(/C=C/c1ccc(O)cc1)c1ccc(NS(=O)(=O)c2ccc(F)cc2)cc1`: the values for the IC50 in [2] and in series [3] were 19.8 µM and 29.1 µM, respectively. Also, the Activity result in series [17] was “Dose-dependent effect”. For the same compound, the affinity in [4] corresponds to a Ki of 14.9 µM.
